Measurements taken from PubChem BioAssay AID180 (DTP/NCI, 2004).
“And” between values parts separate entries of the source, which are not always exact repeats. Identical values can stand only once.

System: BDF1 mice, Adenocarcinoma 755 s.c., tumor weight T/C
Experiment: NCI In Vivo Anticancer Drug Screen. Data for tumor model Adenocarcinoma 755 (subcutaneous) in B6D2F1 (BDF1) mice
Settings: endpoint: mean tumor weight, higher = larger tumour
In short: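 Values express treated (T) relative to vehicle-dosed control (C) animals, based on survival or tumour size measured after compound treatment of mice bearing a transplanted tumour.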

[1] = dose: 50.0 mg/kg/injection, schedule: Q01DX011 (ip), vehicle: saline
[2] = dose: 15.0 mg/kg/injection, schedule: Q01DX011 (ip), vehicle: methylcellulose (MC)
[3] = dose: 60.0 mg/kg/injection, schedule: Q01DX011 (ip), vehicle: carboxymethylcellulose (CMC)

## CN(C)[C@@H]1C(=O)C(C(=O)NCNC2(C(=O)O)CCCC2)=C(O)[C@@]2(O)C(=O)C3=C(O)c4c(O)cccc4[C@@](C)(O)[C@H]3C[C@@H]12
[1]
  T/C: 77 % of control
dose: 75.0 mg/kg/injection, schedule: Q01DX011 (ip), vehicle: saline
  T/C: 65 % of control
dose: 125.0 mg/kg/injection, schedule: Q01DX011 (ip), vehicle: saline
  T/C: 41 % of control
dose: 250.0 mg/kg/injection, schedule: Q01DX011 (ip), vehicle: saline
  T/C: 1 % of control

## C#C[C@]1(O)CC[C@H]2[C@@H]3CCc4cc(O)ccc4[C@H]3CC[C@@]21C
dose: 85.0 mg/kg/injection, schedule: Q01DX011 (sc), vehicle: steriod suspending solution
  T/C: 51 % of control and 53 % of control
dose: 170.0 mg/kg/injection, schedule: Q01DX011 (sc), vehicle: steriod suspending solution
  T/C: 38 % of control and 43 % of control
dose: 340.0 mg/kg/injection, schedule: Q01DX011 (sc), vehicle: steriod suspending solution
  T/C: 37 % of control and 43 % of control
dose: 680.0 mg/kg/injection, schedule: Q01DX011 (sc), vehicle: steriod suspending solution
  T/C: 23 % of control

## CSc1ncnc2c1ncn2C1OC(CO)C(O)C1O (configuration not stated)
dose: 1.9 mg/kg/injection, schedule: Q01DX011 (ip), vehicle: saline
  T/C: 102 % of control and 87 % of control
dose: 3.0 mg/kg/injection, schedule: Q01DX011 (ip), vehicle: saline
  T/C: 90 % of control
dose: 6.0 mg/kg/injection, schedule: Q01DX011 (ip), vehicle: saline
  T/C: 112 % of control
dose: 7.5 mg/kg/injection, schedule: Q01DX011 (ip), vehicle: saline
  T/C: 100 % of control and 120 % of control
dose: 12.5 mg/kg/injection, schedule: Q01DX011 (ip), vehicle: saline
  T/C: 93 % of control

## COCC1OC2OC3C(COC)OC(OC4C(COC)OC(OC5C(COC)OC(OC6C(COC)OC(OC7C(COC)OC(OC8C(COC)OC(OC1C(O)C2O)C(O)C8O)C(O)C7O)C(O)C6O)C(O)C5O)C(O)C4O)C(O)C3O (configuration not stated) (tested in a mixture with another compound)
dose: 3.12 mg/kg/injection, schedule: Q01DX011 (ip), vehicle: Klucel (hydroxypropylcellulose) (HPC)
  T/C: 87 % of control
dose: 6.25 mg/kg/injection, schedule: Q01DX011 (ip), vehicle: Klucel (hydroxypropylcellulose) (HPC)
  T/C: 97 % of control
dose: 12.5 mg/kg/injection, schedule: Q01DX011 (ip), vehicle: Klucel (hydroxypropylcellulose) (HPC)
  T/C: 66 % of control
dose: 25.0 mg/kg/injection, schedule: Q01DX011 (ip), vehicle: Klucel (hydroxypropylcellulose) (HPC)
  T/C: 95 % of control
dose: 50.0 mg/kg/injection, schedule: Q01DX011 (ip), vehicle: Klucel (hydroxypropylcellulose) (HPC)
  T/C: 87 % of control
dose: 100.0 mg/kg/injection, schedule: Q01DX011 (ip), vehicle: Klucel (hydroxypropylcellulose) (HPC)
  T/C: 51 % of control
dose: 200.0 mg/kg/injection, schedule: Q01DX011 (ip), vehicle: Klucel (hydroxypropylcellulose) (HPC)
  T/C: 104 % of control
dose: 400.0 mg/kg/injection, schedule: Q01DX011 (ip), vehicle: Klucel (hydroxypropylcellulose) (HPC)
  T/C: 71 % of control

## N#Cc1cn(Cc2ccco2)c(=O)[nH]c1=O
[2]
  T/C: 54 % of control
dose: 31.0 mg/kg/injection, schedule: Q01DX011 (ip), vehicle: methylcellulose (MC)
  T/C: 84 % of control
dose: 62.0 mg/kg/injection, schedule: Q01DX011 (ip), vehicle: methylcellulose (MC)
  T/C: 80 % of control

## C[C@@H]1C[C@H]2CC[C@H](O2)[C@H](C)C(=O)O[C@@H](C)C[C@@H]2CC[C@@H](O2)[C@@H](C)C(=O)O[C@H](C)C[C@H]2CC[C@H](O2)[C@H](C)C(=O)O[C@@H](C)C[C@@H]2CC[C@@H](O2)[C@@H](C)C(=O)O1
dose: 2.5 mg/kg/injection, schedule: Q01DX011 (ip), vehicle: olive oil, sesame oil, peanut oil
  T/C: 116 % of control
dose: 5.0 mg/kg/injection, schedule: Q01DX011 (ip), vehicle: olive oil, sesame oil, peanut oil
  T/C: 85 % of control
dose: 10.0 mg/kg/injection, schedule: Q01DX011 (ip), vehicle: olive oil, sesame oil, peanut oil
  T/C: 96 % of control
dose: 10.0 mg/kg/injection, schedule: Q01DX011 (sc), vehicle: olive oil, sesame oil, peanut oil
  T/C: 118 % of control
dose: 18.0 mg/kg/injection, schedule: Q01DX011 (ip), vehicle: carboxymethylcellulose (CMC)
  T/C: 116 % of control
dose: 19.0 mg/kg/injection, schedule: Q01DX011 (ip), vehicle: methylcellulose (MC)
  T/C: 89 % of control
dose: 19.0 mg/kg/injection, schedule: Q01DX011 (sc), vehicle: methylcellulose (MC)
  T/C: 246 % of control
dose: 20.0 mg/kg/injection, schedule: Q01DX011 (ip), vehicle: olive oil, sesame oil, peanut oil
  T/C: 48 % of control
dose: 20.0 mg/kg/injection, schedule: Q01DX011 (sc), vehicle: olive oil, sesame oil, peanut oil
  T/C: 73 % of control
dose: 30.0 mg/kg/injection, schedule: Q01DX011 (sc), vehicle: olive oil, sesame oil, peanut oil
  T/C: 87 % of control
dose: 36.0 mg/kg/injection, schedule: Q01DX011 (ip), vehicle: carboxymethylcellulose (CMC)
  T/C: 98 % of control
dose: 37.5 mg/kg/injection, schedule: Q01DX011 (sc), vehicle: methylcellulose (MC)
  T/C: 159 % of control
dose: 40.0 mg/kg/injection, schedule: Q01DX011 (ip), vehicle: carboxymethylcellulose (CMC)
  T/C: 87 % of control
dose: 50.0 mg/kg/injection, schedule: Q01DX011 (ip), vehicle: carboxymethylcellulose (CMC)
  T/C: 92 % of control
[3]
  T/C: 89 % of control
dose: 60.0 mg/kg/injection, schedule: Q01DX011 (sc), vehicle: olive oil, sesame oil, peanut oil
  T/C: 57 % of control
dose: 75.0 mg/kg/injection, schedule: Q01DX011 (ip), vehicle: methylcellulose (MC)
  T/C: 91 % of control
dose: 150.0 mg/kg/injection, schedule: Q01DX011 (sc), vehicle: methylcellulose (MC)
  T/C: 211 % of control

## CCSc1ncc(Br)c(Sc2nc(N)nc3nc[nH]c23)n1
dose: 0.5 mg/kg/injection, schedule: Q01DX011 (ip), vehicle: carboxymethylcellulose (CMC)
  T/C: 69 % of control
dose: 0.5 mg/kg/injection, schedule: Q01DX011 (ip), vehicle: methylcellulose (MC)
  T/C: 68 % of control
dose: 1.0 mg/kg/injection, schedule: Q01DX011 (ip), vehicle: carboxymethylcellulose (CMC)
  T/C: 17 % of control and 30 % of control
dose: 1.0 mg/kg/injection, schedule: Q01DX011 (ip), vehicle: methylcellulose (MC)
  T/C: 37 % of control
dose: 1.5 mg/kg/injection, schedule: Q01DX011 (ip), vehicle: carboxymethylcellulose (CMC)
  T/C: 18 % of control
dose: 2.0 mg/kg/injection, schedule: Q01DX011 (ip), vehicle: carboxymethylcellulose (CMC)
  T/C: 57 % of control
dose: 3.0 mg/kg/injection, schedule: Q01DX011 (ip), vehicle: carboxymethylcellulose (CMC)
  T/C: 3 % of control and 5 % of control and 23 % of control
dose: 4.0 mg/kg/injection, schedule: Q01DX011 (ip), vehicle: carboxymethylcellulose (CMC)
  T/C: 2 % of control
dose: 6.0 mg/kg/injection, schedule: Q01DX011 (ip), vehicle: carboxymethylcellulose (CMC)
  T/C: 2 % of control
dose: 8.0 mg/kg/injection, schedule: Q01DX011 (ip), vehicle: carboxymethylcellulose (CMC)
  T/C: 15 % of control
dose: 12.0 mg/kg/injection, schedule: Q01DX011 (ip), vehicle: carboxymethylcellulose (CMC)
  T/C: 3 % of control

## CN1C=NNc2ncnc(Cl)c21
dose: 125.0 mg/kg/injection, schedule: Q01DX011 (ip), vehicle: carboxymethylcellulose (CMC)
  T/C: 166 % of control
dose: 250.0 mg/kg/injection, schedule: Q01DX011 (ip), vehicle: carboxymethylcellulose (CMC)
  T/C: 161 % of control

## COc1cc(-c2ccc(Nc3ccccc3C(=O)O)c(OC)c2)ccc1Nc1ccccc1C(=O)O
dose: 25.0 mg/kg/injection, schedule: Q01DX011 (ip), vehicle: saline
  T/C: 75 % of control
[1]
  T/C: 28 % of control
dose: 100.0 mg/kg/injection, schedule: Q01DX011 (ip), vehicle: saline
  T/C: 5 % of control

## O=C(Nc1ccc(C2=NCCN2)cc1)c1cccc(C(=O)Nc2ccc(C3=NCCN3)cc2)c1
dose: 9.0 mg/kg/injection, schedule: Q01DX011 (ip), vehicle: water
  T/C: 110 % of control
dose: 9.4 mg/kg/injection, schedule: Q01DX011 (ip), vehicle: carboxymethylcellulose (CMC)
  T/C: 76 % of control
dose: 12.0 mg/kg/injection, schedule: Q01DX011 (ip), vehicle: water
  T/C: 165 % of control
[2]
  T/C: 86 % of control
dose: 18.0 mg/kg/injection, schedule: Q01DX011 (ip), vehicle: water
  T/C: 108 % of control
dose: 18.75 mg/kg/injection, schedule: Q01DX011 (ip), vehicle: carboxymethylcellulose (CMC)
  T/C: 60 % of control
dose: 25.0 mg/kg/injection, schedule: Q01DX011 (ip), vehicle: water
  T/C: 60 % of control
dose: 30.0 mg/kg/injection, schedule: Q01DX011 (ip), vehicle: methylcellulose (MC)
  T/C: 64 % of control
dose: 37.5 mg/kg/injection, schedule: Q01DX011 (ip), vehicle: water
  T/C: 47 % of control
dose: 50.0 mg/kg/injection, schedule: Q01DX011 (ip), vehicle: water
  T/C: 59 % of control
dose: 60.0 mg/kg/injection, schedule: Q01DX011 (ip), vehicle: methylcellulose (MC)
  T/C: 67 % of control
dose: 120.0 mg/kg/injection, schedule: Q01DX011 (ip), vehicle: methylcellulose (MC)
  T/C: 37 % of control

## CC(=O)OCC1OC(n2cnc3c(=O)[nH]cnc32)CC1OC(C)=O (configuration not stated)
[3]
  T/C: 75 % of control and 78 % of control
dose: 120.0 mg/kg/injection, schedule: Q01DX011 (ip), vehicle: carboxymethylcellulose (CMC)
  T/C: 86 % of control
